Assays:
[1] = test system: TNFR1-stimulated NF-κB activation; test: LTα-induced NF-κB activation luciferase assay in HEK293 cells; format: cell-based, human
[2] = test system: TRADD-induced NF-κB activation; test: TRADD-induced NF-κB activation in HEK293 cells; format: cell-based, human; conditions: HEK293, TRADD overexpression, 0.1 to 200 μM
[3] = molecular target: T1, TNFR1 PLAD dimer (Homo sapiens, UniProt P19438); test: Native gel characterization of soluble TNFR1 PLAD dimer; conditions: compounds 200 μM
T1 sequence (P19438 30-82): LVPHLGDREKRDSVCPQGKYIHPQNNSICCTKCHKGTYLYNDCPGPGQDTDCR

[4] = test system: basal NF-κB activation in TNFR1 KO HAP1 cells; test: Basal NF-κB activation in TNFR1 KO HAP1 cells; format: cell-based, human
[5] = test system: TNFR1-stimulated NF-κB activation; conditions: read-out: absolute IC50, inhibition of ligand-induced NF-κB activation; cited from earlier work
[6] = molecular target: T2, human TNFR1 ECD (Homo sapiens, UniProt P19438); test: SPR binding assay on immobilized TNFR1 ECD
T2 sequence (P19438 30-211 limits assumed): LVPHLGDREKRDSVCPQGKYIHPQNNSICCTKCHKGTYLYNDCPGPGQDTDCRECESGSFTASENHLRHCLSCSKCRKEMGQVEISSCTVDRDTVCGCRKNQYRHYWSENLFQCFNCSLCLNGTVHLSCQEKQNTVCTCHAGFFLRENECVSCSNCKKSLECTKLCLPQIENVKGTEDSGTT

[7] = molecular target: T3, TNFR1 ECD dimer (Homo sapiens, UniProt P19438); test: Native gel characterization of soluble TNFR1 ECD dimer; format: biochemical; conditions: compounds 200 μM
T3 sequence (P19438 30-211 limits assumed): T2 sequence (P19438 30-211 limits assumed)

[8] = molecular target: T4, recombinant human TNFR1 extracellular domain (human, UniProt P19438 30-211); test: SPR
T4 sequence (looked up): T2 sequence (P19438 30-211 limits assumed)

[9] = molecular target: T5, soluble FLAG-tagged lymphotoxin-α (LTα), P01374; test: native gel or EMSA; conditions: remark: other sources report otherwise
T5 chain: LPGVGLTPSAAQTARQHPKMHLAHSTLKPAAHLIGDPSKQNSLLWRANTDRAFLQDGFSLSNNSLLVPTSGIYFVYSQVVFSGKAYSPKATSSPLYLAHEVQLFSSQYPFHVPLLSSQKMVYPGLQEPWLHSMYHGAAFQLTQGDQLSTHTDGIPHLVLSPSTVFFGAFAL

[10] = molecular target: the molecule itself; test: native gel or EMSA

Which results are given for `COc1cc(C(=O)NS(=O)(=O)c2ccccc2C)ccc1Cc1cn(C)c2ccc(NC(=O)OC3CCCC3)cc12` [zafirlukast]?
extent of inhibition of NF-κB activation ([1]; HEK293, LTα, maximal inhibition): 55%; IC50 for inhibition of NF-κB in the presence of H398 ([1]; presence of H398 antibody): unchanged; effect on TRADD-induced NF-κB activation [2]: little effect; disruption of soluble PLAD dimers [3]: disrupted; effect on basal level of NF-κB activation in TNFR1 KO cells (specificity) [4]: almost no effect on basal activity; IC50 [5]: 50 µM; Kd [6]: 86 µM; noncompetitive binding of LTα and compound to TNFR1 ECD ([6]; SPR, LTα 50 nM, compound 200 μM): equal to the sum of the individual response; LTα binding affinity to TNFR1 ECD in the presence of compound ([6]; SPR, compound at saturating 200 μM): essentially unchanged; competition with H398 for binding TNFR1 ([6]; SPR, compounds 200 μM, H398 at 1.0 nM): did not compete with H398; disruption of TNFR1 ECD dimer [7]: disrupted

B1: soluble FLAG-tagged lymphotoxin-α (LTα) (ligand, UniProt P01374 35-205, looked up)
chain: T5 chain
What does the source list for B1?
Kd [8]: 0.037 µM; stoichiometry N [9]: 3

B2: FLAG-tagged TNFR1 PLAD (residues 30 to 82) (domain or fragment, UniProt P19438 30-82, looked up)
chain: T1 sequence (P19438 30-82)
For B2, which “stoichiometry N” value [10] is on record?
The value was 2.

— article PMC7008598 (Science signaling, 2019)
